Measurements as given in article PMC11412900 (Molecular Psychiatry, 2024).
Read-outs that look alike come from different tables or passages of the source.

What was measured:
h5-HT1AR = biological target: T1, h5-HT1AR (Homo sapiens, UniProt P08908); test: Radioligand binding, [3H]8-OH-DPAT displacement
T1 construct: purchased Perkin Elmer, Inc. (Waltham, MA, USA)
T1 sequence (P08908 1-422): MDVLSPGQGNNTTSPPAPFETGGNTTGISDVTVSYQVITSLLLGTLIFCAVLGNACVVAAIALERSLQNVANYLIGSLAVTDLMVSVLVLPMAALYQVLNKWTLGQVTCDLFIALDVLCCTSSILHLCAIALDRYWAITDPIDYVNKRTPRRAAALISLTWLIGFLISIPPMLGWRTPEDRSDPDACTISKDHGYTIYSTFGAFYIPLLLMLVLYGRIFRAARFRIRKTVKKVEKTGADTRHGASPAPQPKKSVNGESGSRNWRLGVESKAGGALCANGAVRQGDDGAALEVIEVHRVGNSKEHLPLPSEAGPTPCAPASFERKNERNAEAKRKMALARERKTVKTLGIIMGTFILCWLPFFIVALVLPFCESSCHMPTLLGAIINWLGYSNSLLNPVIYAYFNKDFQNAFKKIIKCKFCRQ
Protocol: (§1) Binding assays were performed as described previously. Briefly, membrane preparations expressing h5-HT1AR, h5-HT2AR or hSERT (see Supplementary Material) were incubated with radiolabeled selective ligands 0.4 nM [^3H]8-OH-DPAT, 1 nM [^3H]ketanserin or 3 nM [^3H]imipramine, respectively. The drugs were diluted in the corresponding binding buffer and tested at increasing concentrations in duplicate. Binding reactions were performed in tubes containing the drug dilutions; 25 μl of the corresponding radioligand; and the membranes (10 μg and 5 μg/500 μL for 5-HT1AR and 5-HT2AR, respectively, and 15 μg/100 μL for hSERT), all diluted in binding buffer. […] Incubation was performed for 1 h at 27 °C for 5-HT1A/2AR and 22 °C for hSERT, according to the manufacturer’s protocol (Perkin Elmer, Inc., Waltham, MA, USA) and previous studies - saturation and kinetic experiments, respectively. The binding reactions were stopped by rapid filtration through GF/B glass microfiber filters pre-soaked with 0.5% polyethyleneimine and washing with ice-cold wash buffer. The filters were placed into vials and scintillation cocktail was added. The trapped radioactivity was quantified. Specific binding was defined as the difference between total binding (binding buffer alone) and non-specific binding. Experiments were conducted per duplicate for at least three independent experiments.

[1] = test system: horizontal locomotor activity in mice; test: Horizontal locomotor activity (HLA); format: in vivo; details: i.p., 30 min; for HLA (hypolocomotion) Emax (95% CI): total traveled distance
Protocol: The HLA test was carried out according to a previous study. The same animals (N = 8–10 per group) used for the assessment of HTR were recorded for 30 min in an observation arena, under low-light conditions with white noise. Video recordings were processed using a tracking software (Smart 3.0 Panlab, Barcelona, Spain) to measure the total traveled distance.
(§2) Data were expressed as means±standard deviation (SD). Competition, release and functional assays, and substrate-induced current curves were plotted and fitted by non-linear regression to obtain the IC50, EC50, and Emax values. For behavioral studies, data were fitted by non-linear regression and pED50 and Emax values (with the corresponding 95% CI) were estimated by means of a software (GraphPad Prism 10) that further extrapolates the data. The Cheng-Prusoff equation was used to calculate Ki (affinity): Ki = […]/(1 + [radioligand-concentration/Kd]). HTR curves were fitted using a Gaussian equation as described. Data from batch release assays were statistically analyzed with a mixed-effects model, employing Šidák’s correction for multiple comparisons. Total release at each concentration and the behavioral experiments with the corresponding antagonists were statistically analyzed using one-way ANOVA, followed by Tukey’s post-hoc test. Molecular volume (van der Waals) was calculated using a grid approximation (spacing 0.75 Å). logP was calculated using Molinspiration Cheminformatics software. For in vivo studies, one-way ANOVA with Dunnet’s post-hoc test was used to compare all conditions to saline in dose-response experiments when data were normally distributed. Otherwise, a non-parametric test (Kruskall-Wallis with Dunn’s post-hoc test) was used. Alpha was set at 0.05. Outliers were excluded following ROUT’s method (Q = 0.1%). All statistical analyses and Pearson correlations were conducted using GraphPad Prism 10 software (GraphPad software, San Diego, CA, USA).

SERT = biological target: T2, SERT (Homo sapiens, UniProt P31645); test: Batch release of preloaded [3H]5-HT from HEK293 cells expressing SERT; format: cell-based; details: for 5-HT releasing activity: with or without monensin, pCA as positive control; for 5-HT release at SERT: with or without monensin 10 µM
T2 construct: YFP (yellow-fluorescent protein); expressed in transfected cells
T2 sequence (P31645 whole entry): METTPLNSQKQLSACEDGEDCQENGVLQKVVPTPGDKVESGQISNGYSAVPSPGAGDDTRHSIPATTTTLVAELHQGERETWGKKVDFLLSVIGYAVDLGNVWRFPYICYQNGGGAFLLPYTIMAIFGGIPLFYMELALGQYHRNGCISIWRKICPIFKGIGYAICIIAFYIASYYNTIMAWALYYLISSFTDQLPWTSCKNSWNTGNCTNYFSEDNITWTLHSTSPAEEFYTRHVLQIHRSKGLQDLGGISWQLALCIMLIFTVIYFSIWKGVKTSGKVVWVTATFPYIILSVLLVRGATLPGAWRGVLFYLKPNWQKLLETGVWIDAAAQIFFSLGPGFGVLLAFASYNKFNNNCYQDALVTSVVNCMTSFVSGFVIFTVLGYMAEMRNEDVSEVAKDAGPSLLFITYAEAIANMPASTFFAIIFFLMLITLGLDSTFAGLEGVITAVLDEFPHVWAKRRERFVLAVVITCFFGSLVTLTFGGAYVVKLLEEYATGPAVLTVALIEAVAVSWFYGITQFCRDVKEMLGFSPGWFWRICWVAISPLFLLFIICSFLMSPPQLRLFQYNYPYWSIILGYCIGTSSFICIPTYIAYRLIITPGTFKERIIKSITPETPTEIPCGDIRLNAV
Protocol: Batch release is a functional radiometric assay to assess transporter-mediated efflux. […] Subsequently, cells were washed three times with KHB and equilibrated for 10 min in KHB or KHB+monensin (10 µM). […] 10 µM pCA and 0.05 µM paroxetine were used as positive and negative controls, respectively. Liquid scintillation cocktail was added both to the wells containing cells (200 µL) and to the transferred supernatant (100 µL). Total radioactivity determined from/in the remaining lysate of the cells plus the transferred supernatant was set as 100%, and the radioactivity determined in each fraction was expressed as a percentage thereof. Assays were performed per duplicate for five independent experiments.

[2] = test system: core body temperature in mice; test: Core body temperature measurement; format: in vivo; details: mice, i.p., 60 min after injection
Protocol: Rectal temperature of mice (N = 8–10 per group) was measured 60 min after i.p. injection of the corresponding compound (see previous section “Head twitch response”). This time point was chosen according to the maximal effect observed in pilot experiments. A thermocouple probe (YS451, Panlab, Barcelona, Spain) connected to a digital thermometer (TMP812RS, Panlab, Barcelona, Spain) was inserted 2 cm into the rectum and steady temperature readout was obtained after 10 s of insertion.
as §2

h5-HT2AR = biological target: T3, h5-HT2AR (Homo sapiens, UniProt P28223); format: binding; details: 1 nM [3H]ketanserin, N ≥ 3; read-out: 5-HT2AR Ki ± SD
T3 construct: purchased Perkin Elmer, Inc. (Waltham, MA, USA)
T3 sequence (P28223 whole entry): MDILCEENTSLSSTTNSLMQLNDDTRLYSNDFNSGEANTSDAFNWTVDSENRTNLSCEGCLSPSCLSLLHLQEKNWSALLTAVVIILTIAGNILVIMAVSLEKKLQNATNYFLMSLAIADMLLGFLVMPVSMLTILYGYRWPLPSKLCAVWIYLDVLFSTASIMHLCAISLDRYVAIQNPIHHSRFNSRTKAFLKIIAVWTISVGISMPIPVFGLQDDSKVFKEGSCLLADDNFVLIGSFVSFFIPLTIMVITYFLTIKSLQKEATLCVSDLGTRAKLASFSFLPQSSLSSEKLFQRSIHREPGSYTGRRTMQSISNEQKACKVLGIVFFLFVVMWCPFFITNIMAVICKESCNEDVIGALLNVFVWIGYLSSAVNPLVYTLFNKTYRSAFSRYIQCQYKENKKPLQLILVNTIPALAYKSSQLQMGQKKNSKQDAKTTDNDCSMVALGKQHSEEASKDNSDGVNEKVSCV
Protocol: as §1

[3] = 0.4 nM [3H]8-OH-DPAT, N ≥ 3, read-out: 5-HT1AR Ki ± SD

| SMILES | Ki (h5-HT1AR; [3]) | HLA (hypolocomotion) ED50 [1] | HLA (hypolocomotion) Emax (95% CI) [1] | 5-HT releasing activity (SERT) | Change in body temperature ED50 [2] | Ki (h5-HT2AR) | Ki (h5-HT1AR) | ED50 ([1]; Mus musculus, ip, 0.5 h, read-out: HLA (hypolocomotion) ED50) | ED50 ([2]; Mus musculus, ip, 1 h, read-out: Change in body temperature ED50) | 5-HT release at SERT (SERT) |
| --- | --- | --- | --- | --- | --- | --- | --- | --- | --- | --- |
| COc1ccc2[nH]cc(CCN3CCCC3)c2c1 [5-MeO-pyr-T] | 0.577 ± 0.195 nM | 1.60 mg/kg | 71.25 (60.71–81.79) % reduction | capable of evoking 5-HT release | 2.89 mg/kg | 373 ± 59 nM | – | – | – | – |
| COc1ccc2[nH]cc(CCN(C(C)C)C(C)C)c2c1 [5-MeO-DIPT, 5-methoxy-N,N-diisopropyltryptamine] | – | – | 55.32 (38.20–72.44) % reduction | slight to none 5-HT releasing activity | – | – | 15.8 ± 1.3 nM | 4.52 mg/kg | 14.8 mg/kg | – |
| CCN(C)CCc1c[nH]c2ccc(OC)cc12 [5-MeO-MET] | 3.11 ± 0.51 nM | 1.70 mg/kg | 66.79 (58.20–75.37) % reduction | capable of evoking 5-HT release | 4.76 mg/kg | 94.1 ± 16.7 nM | – | – | – | – |
| CCN(CC)CCc1c[nH]c2ccc(OC)cc12 [5-MeO-DET] | 4.93 ± 0.62 nM | 4.78 mg/kg | 63.56 (37.58–89.53) % reduction | capable of evoking 5-HT release | 7.18 mg/kg | 128 ± 4 nM | – | – | – | – |
| COc1ccc2[nH]cc(CCN(C)C(C)C)c2c1 [5-MeO-MIPT] | 24.8 ± 7.6 nM | 6.57 mg/kg | 82.78 (62.16–103.4) % reduction | slight to none 5-HT releasing activity | 14.8 mg/kg | 147 ± 32 nM | – | – | – | < 10 % total cpm |
| C=CCN(CC=C)CCc1c[nH]c2ccc(OC)cc12 [5-MeO-DALT] | 3.26 ± 0.39 nM | 6.22 mg/kg | 73.11 (57.45–88.78) % reduction | slight to none 5-HT releasing activity | 13.6 mg/kg | 71.7 ± 14.8 nM | – | – | – | – |
| CCN(CCc1c[nH]c2ccc(OC)cc12)C(C)C [5-MeO-EIPT] | 18.4 ± 8.4 nM | 4.82 mg/kg | 68.02 (54.57–81.46) % reduction | – | 15.0 mg/kg | 151 ± 26 nM | – | – | – | < 10 % total cpm |
